This note sets out measurements from ChEMBL document CHEMBL5154930, “Design, Synthesis, and Biological Evaluations of DOT1L Peptide Mimetics Targeting the Protein-Protein Interactions between DOT1L and MLL-AF9/MLL-ENL” (J Med Chem, 2022).

Usually pKi stands for the negative decadic logarithm of the Ki, by convention in mol/L. In general, pIC50 refers to −log10 of the IC50, conventionally taken in molar units.

The test system of series [1] is MOLM-13. In words: Down regulation of […] gene in human MOLM-13 cells by RNA-sequencing analysis. Format: functional, cell-based.
In series [2] the test system is MOLM-13. Briefly: Down regulation of CNOT6L gene in human MOLM-13 cells by RNA-sequencing analysis. It is filed as functional, cell-based.
For series [3], the system named is MOLM-13. In words: Down regulation of RUNX1 gene in human MOLM-13 cells by RNA-sequencing analysis. It is filed as functional, cell-based.
Series [4] deals with MOLM-13. In words: Down regulation of HOXA3 gene in human MOLM-13 cells by RNA-sequencing analysis. It is filed as functional, cell-based.
Another series concerns the target T1, Protein AF-9 (Homo sapiens, UniProt P42568).
T1 sequence (P42568 whole entry): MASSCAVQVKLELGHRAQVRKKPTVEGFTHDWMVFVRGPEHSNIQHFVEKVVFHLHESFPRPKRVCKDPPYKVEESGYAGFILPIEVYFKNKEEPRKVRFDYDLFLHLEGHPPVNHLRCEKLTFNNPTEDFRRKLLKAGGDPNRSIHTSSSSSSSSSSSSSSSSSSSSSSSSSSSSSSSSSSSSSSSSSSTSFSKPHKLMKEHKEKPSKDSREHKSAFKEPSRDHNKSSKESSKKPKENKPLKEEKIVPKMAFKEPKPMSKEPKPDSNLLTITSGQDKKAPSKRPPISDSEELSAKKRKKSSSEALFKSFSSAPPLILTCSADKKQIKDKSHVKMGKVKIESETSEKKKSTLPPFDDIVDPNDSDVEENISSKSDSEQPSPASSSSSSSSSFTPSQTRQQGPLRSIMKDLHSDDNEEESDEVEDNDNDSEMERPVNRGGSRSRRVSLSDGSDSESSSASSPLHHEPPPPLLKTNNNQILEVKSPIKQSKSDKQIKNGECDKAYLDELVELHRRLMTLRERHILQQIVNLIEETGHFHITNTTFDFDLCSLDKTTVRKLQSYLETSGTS
In words: Binding affinity to MBP-tagged human recombinant AF9 (487 to 568 residues) incubated for 40 mins by measuring fluorescence polarization by microplate reader method. A general note: Polarisation of emitted light reports the rotation of a fluorescent probe.

The test system of a further series is RS4-11. In words: Anticancer activity against human RS4-11 cells assessed as inhibition of cell growth treated for 8 days measured by CCK-8 kit method. Format: functional, cell-based. Conditions: RS4-11, 192 h.
For another series, the system named is MV4-11. In words: Anticancer activity against human MV4-11 cells assessed as inhibition of cell growth treated for 8 days measured by CCK-8 kit method. The note with it: MV4-11, 192 h. It is filed as functional, cell-based.
For another series, the system named is K562. In words: Anticancer activity against human K562 cells assessed as inhibition of cell growth treated for 8 days measured by CCK-8 kit method. It is filed as functional, cell-based. Conditions: K562, 192 h. On the technique in general: Formazan colour is commonly taken as a measure of viable cells.
Series [5] can be described thus: Stability in human plasma assessed as compound remaining measured upto 1440 mins by HPLC analysis. It is filed as ADME, cell-free. Conditions: read-out: Stability.
The subject of series [6] is MOLM-13. Briefly: Induction of apoptosis in human MOLM-13 cells treated for 7 days by Annexin V-FITC/PI staining based flow cytometry analysis. Format: functional, cell-based. Conditions: dose 0.25-1 µM, time 7.0 day. Background: A flow cytometer gives signals particle by particle.
Series [7] deals with MOLM-13. Briefly: Induction of apoptosis in human MOLM-13 cells at 0.25 to 1 uM assessed as cleaved PARP by Annexin V-FITC/PI staining based flow cytometry analysis. It is filed as functional, cell-based. The note with it: dose 0.25-1 µM.
Series [8] concerns MOLM-13. In words: Induction of apoptosis in human MOLM-13 cells at 0.25 to 1 uM assessed as cleaved Caspase-3 by Annexin V-FITC/PI staining based flow cytometry analysis. The note with it: dose 0.25-1 µM. Format: functional, cell-based.
Series [9] concerns MOLM-13. In words: Inhibition of methylation of H3K79 in human MOLM-13 cells assessed as inhibition of methylation at HOXA9 gene cluster by chromatin immunoprecipitation assay. Format: functional, cell-based.
Series [10] deals with MOLM-13. In words: Inhibition of methylation of H3K79 in human MOLM-13 cells assessed as inhibition of methylation at HOXA13 gene cluster by chromatin immunoprecipitation assay. It is filed as functional, cell-based.
Series [11] concerns MOLM-13. In words: Inhibition of methylation of H3K79 in human MOLM-13 cells assessed as inhibition of methylation at HOXA2 gene cluster by chromatin immunoprecipitation assay. Format: functional, cell-based.
Series [12] deals with MOLM-13. Briefly: Inhibition of methylation of H3K79 in human MOLM-13 cells assessed as inhibition of methylation at HOXA4 gene cluster by chromatin immunoprecipitation assay. Format: functional, cell-based.
In series [13] the test system is MOLM-13. In words: Inhibition of methylation of H3K79 in human MOLM-13 cells assessed as inhibition of methylation at HOXA6 gene cluster by chromatin immunoprecipitation assay. Format: functional, cell-based.
The test system of series [14] is MOLM-13. In words: Down regulation of PBX3 gene in human MOLM-13 cells by RNA-sequencing analysis. It is filed as functional, cell-based.
Series [15] concerns MOLM-13. Briefly: Down regulation of SKP2 gene in human MOLM-13 cells by RNA-sequencing analysis. Format: functional, cell-based.
The test system of series [16] is MOLM-13. Briefly: Down regulation of GATA2 gene in human MOLM-13 cells by RNA-sequencing analysis. It is filed as functional, cell-based.
Series [17] deals with MOLM-13. In words: cells. Conditions: Homo sapiens, MOLM-13, 120 h.
Description: Anticancer activity against human MOLM-13 cells harbouring MLL-AF9 assessed as inhibition of cell growth treated for 5 days measured by CCK-8 kit method

pIC50, pKi: −log10 of the molar value. Activity calls are given as the source filed them. No cut-off for these calls is given here. Non-standard residues stand in square brackets, D forms with d. Residues, ends and D or L forms follow the SMILES beside them. *: point of attachment. X1 = C[C@H](N*)c1nc2cccc(-c3ccccc3)c2[nH]1; Ala(cPent) = N[C@@H](CC1CCCC1)C(=O)O; Pentanoyl(4-Me) = CC(C)CCC(=O)*; Dap(Me) = CNC[C@H](N)C(=O)O

For `CNC[C@H](NC(=O)[C@@H](NC(=O)[C@@H]1CCCN1C(=O)CCC(C)C)C(C)C)C(=O)N[C@@H](CC1CCCC1)C(=O)N[C@@H](C)c1nc2cccc(-c3ccccc3)c2[nH]1` ({Pentanoyl(4-Me)}-PV[Dap(Me)][Ala(cPent)]-X1), the outcome with MOLM-13 [1], in the series with MOLM-13 [2], in the series on MOLM-13 [3], with MOLM-13 [4], with MOLM-13 [6] and in the series on MOLM-13 [7] was Active. Moreover, the result with MOLM-13 [8], with MOLM-13 [14], in the series on MOLM-13 [15] and with MOLM-13 [16] was Active. Moreover, the pKi at Protein AF-9 is 8.05. The negative-log IC50 (pIC50) is 6.62 with RS4-11, 6.66 with MV4-11, 4.23 with K562 and 6.15 in the series on MOLM-13 [17]. Besides, the remaining at 24 h in series [5] was determined as 81.5%. Besides, the inhibition entry in the series with MOLM-13 [9], in the series with MOLM-13 [10], with MOLM-13 [11], in the series with MOLM-13 [12] and in the series on MOLM-13 [13] was “Active” in each case.
